# According to article PMC5826112, “Intrapulmonary Pharmacokinetics of Relebactam, a Novel β-Lactamase Inhibitor, Dosed in Combination with Imipenem-Cilastatin in Healthy Subjects” (Antimicrobial Agents and Chemotherapy, 2018):
# Read-outs that look alike come from different tables or passages of the source.
# Columns and labels:
# [1] = Relebactam population PK model (two-compartment plasma model with time-invariant ELF partition coefficient); format: in vivo, human (healthy subjects)
# Experimental: Population PK analysis was conducted using NONMEM (version 7.3) software (ICON plc., Dublin, Ireland). The first-order conditional estimation with interaction (FOCEI) method was applied for parameter estimation. […] To elucidate the relationship between plasma and ELF concentrations, penetration into the ELF was explored using three approaches, each using a naive pooled data approach: (i) a three-compartment model with bidirectional mass transfer between the ELF compartment and the central volume, (ii) a time-invariant partition coefficient driven by the predicted unbound plasma concentration, and (iii) an effect compartment with an input rate constant driven by the concentration difference between the volume in the central compartment and the effect compartment.
# The equations comprising the partition coefficient model are as follows: (1) dA1/dt=Q2/V2A2−Q2/V1A1−CL/V1A1 (2) dA2/dt=Q2/V1A1−Q2/V2A2 (3) CELF=kELF·fu,REL·A1/V1 where A1 is the amount of drug in the central compartment, A2 is the amount of drug in the peripheral compartment, CL is the plasma clearance, Q2 is the intercompartmental clearance, V1 is the volume of distribution in the central compartment, V2 is the volume of distribution in the peripheral compartment, CELF is the relebactam concentration in the ELF, fu,ELF is the free fraction of relebactam in plasma (∼80%), kELF is the partition coefficient for distribution into the ELF space, and t is time.
# The free fraction in the ELF was assumed to be 100%. Different residual error models (additive, proportional, and combined) were tested for both the plasma and ELF concentrations of relebactam. Model development, including the selection of the structural and residual error model, was based upon the success of minimization, numerical comparison of the objective function values, the precision of the parameter estimates, and the generation of standard model diagnostic plots. The PK of imipenem were not modeled, as the lung penetration data from this study were previously described using a population PK approach ([21]).
# [2] = set-up: method as in earlier work; conditions: relebactam doses of 125 mg or higher; exceeds single-dose target; cited from earlier work
# [3] = set-up: method as in data on file; conditions: mice; ref data on file; cited from earlier work
# [4] = Intrapulmonary (ELF, AC) and plasma pharmacokinetics after multiple-dose IV relebactam with imipenem-cilastatin, bronchoscopy/BAL, noncompartmental analysis; format: in vivo, human (healthy subjects); conditions: for t1/2 (terminal half-life) / half-life / AUC(0-inf) / Cmax / Tmax / AUC(0-t): mean profile; for half-life: read-out: t1/2 (terminal half-life) (converted); for Kp at 1 h: 1.0 h after last dose; for Kp at 3 h: 3.0 h after last dose; for AUC(0-inf): noncompartmental analysis; for AUC(0-t): read-out: AUC0–3
# Experimental: Dosing and administration of imipenem-cilastatin were carried out in a manner consistent with the recommended labeled posology. BAL fluid specimens were obtained during bronchoscopy for the determination of the relebactam and imipenem concentrations in the ELF and AC. Four aliquots of normal saline (50 ml each) were sequentially instilled and aspirated after each instillation. The first aspirate was discarded, and the remaining aspirates were pooled and used to obtain urea and drug level measurements. Aliquots were obtained for cell count/differential, and the remainder of the pooled aspirates was centrifuged. The liquid aspirate and cell pellet were separated and stored at −70°C. The supernatant was sent for urea and drug level measurements. Blood samples were collected prior to the first and fifth doses of study drug for the determination of relebactam and imipenem plasma concentrations. Blood samples were also collected during the bronchoscopy/BAL procedure for the determination of relebactam, imipenem, and urea concentrations. Relebactam and imipenem levels in plasma, pulmonary ELF, and AC were measured simultaneously via acetonitrile protein precipitation and hydrophilic interaction liquid chromatography (HILIC) with detection via liquid chromatography-tandem mass spectrometry (LC-MS/MS). The system consisted of a Waters Acquity ultraperformance liquid chromatograph (Waters Corp., Milford, MA) and an API 4000 or 5000 triple-quadrupole tandem mass spectrometer (Sciex, Framingham, MA) equipped with a turbo-ion spray interface and operated in the positive ionization mode. The multiple reaction monitoring (MRM) transitions monitored were m/z 349 → 269 for relebactam, m/z 300 → 98 for imipenem, and m/z 354 → 274 and m/z 307 → 98 for their respective internal standards. […] The ELF volumes recovered by BAL were determined by using urea as an endogenous marker to provide a dilution ratio by measurement of urea concentrations in the BAL fluid and serum ([33]). […] The mean value for each time point was used to conduct the noncompartmental analysis using Phoenix (version 6.3) software (Pharsight Corporation, Mountain View, CA) and to calculate the values of the PK parameters on the basis of the mean profile in each matrix.
# [5] = Safety and tolerability in healthy subjects; format: in vivo, human (healthy subjects); conditions: with imipenem-cilastatin
# Excerpt: The safety and tolerability of relebactam were monitored by clinical assessment of adverse events, measurement of vital signs, and performance of a physical examination, 12-lead electrocardiogram (ECG), and standard laboratory safety tests (hematology, chemistry, and urinalysis). Renal function (established by determination of serum/urine creatinine, serum urea, urine protein, and urine albumin concentrations) and hepatic function (established by determination of serum bilirubin, alanine aminotransferase, and aspartate aminotransferase concentrations) were carefully monitored during the study. The safety of bronchoscopy and BAL was monitored by clinical assessment, including continuous cardiac monitoring and repeated measurements of vital signs, according to the standard operating procedures at the study site. All data were analyzed according to the treatment actually received. Safety and tolerability were assessed in the all-subjects-as-treated (AST) population, defined as all subjects who received at least one dose of study drug.
# [6] = set-up: method as in earlier work; conditions: cited from earlier work
# [7] = both sexes, human, AC/plasma, intravenous, same regimen, n=4, read-out: AC/plasma concn GMR (90% CI)
# [8] = both sexes, human, ELF/plasma, intravenous, same regimen, n=4, read-out: ELF/plasma concn GMR (90% CI)
# [9] = both sexes, human, intravenous, AC, same regimen
# [10] = both sexes, human, intravenous, ELF, same regimen
# [11] = both sexes, human, intravenous, plasma, same regimen
smiles,measurement,setting,value
O=C(NC1CCNCC1)[C@@H]1CC[C@@H]2CN1C(=O)N2OS(=O)(=O)O [relebactam],Kp,"[1]; human, ELF / unbound plasma, intravenous, driven by predicted unbound plasma concentration, read-out: Penetration coefficient for ELF (θkELF)",0.553
same,Kp,"[1]; human, ELF/unbound plasma, intravenous, based on free drug levels, read-out: time-invariant partition coefficient (ELF) estimated by the model",0.55
same,clearance,"[1]; human, plasma, intravenous, population PK structural model, read-out: Clearance (θCL) (converted)",153 mL/min
same,Vd,"[1]; human, plasma, intravenous, population PK structural model, read-out: Volume of distribution in the central compartment (θVc)",15.3 L
same,Intercompartmental clearance (θQ2),[1]; population PK structural model,2.64 L/h
same,Volume of distribution in the peripheral compartment (θVp),[1]; population PK structural model,10.6 L
same,exposure (AUC0–∞),[2],> 37.5 µM·h
same,"penetration into the murine lung, ratio of total drug levels in the lung to total drug levels in plasma",[3],approximately 34%
same,t1/2 (terminal half-life),"[4]; AC, same regimen",2.25 h
same,t1/2 (terminal half-life),"[4]; ELF, same regimen",1.29 h
same,GMR for the relebactam concentration versus the imipenem concentration in ELF,"[4]; at the Tmax of imipenem (0.5 h), 90% CI 45%, 49%",47%
same,half-life,"[4]; both sexes, human, AC, intravenous, AC, same regimen",2.3 h
same,Kp,"[4]; both sexes, human, AC/plasma, intravenous, mean profiles, after adjustment for protein binding, read-out: relative exposure (AUC0–∞) in AC versus plasma",0.36
same,Kp,"[4]; both sexes, human, AC/plasma, intravenous, same regimen, 0.5 to 3 h after last dose, read-out: GMRs for AC/plasma concentrations, range across time points",0.14 to 0.51
same,Kp at 0.5 h,"[4]; both sexes, human, AC/plasma, intravenous, same regimen, 0.5 h after last dose, n=4, read-out: AC/plasma concn GMR (90% CI)",0.14
same,Kp at 1 h,[4]; [7],0.25
same,Kp at 1.5 h,"[4]; both sexes, human, AC/plasma, intravenous, same regimen, 1.5 h after last dose, n=4, read-out: AC/plasma concn GMR (90% CI)",0.38
same,Kp at 3 h,[4]; [7],0.51
same,half-life,"[4]; both sexes, human, ELF, intravenous, ELF, same regimen",1.3 h
same,concentration at 0.5 h,"[4]; both sexes, human, ELF, intravenous, same regimen, 0.5 h after last dose, n=4, read-out: concn in ELF, GM",14.9 µM
same,concentration at 1 h,"[4]; both sexes, human, ELF, intravenous, same regimen, 1 h after last dose, n=4, read-out: concn in ELF, GM",10.9 µM
same,concentration at 1.5 h,"[4]; both sexes, human, ELF, intravenous, same regimen, 1.5 h after last dose, n=4, read-out: concn in ELF, GM",9.49 µM
same,concentration at 3 h,"[4]; both sexes, human, ELF, intravenous, same regimen, 3 h after last dose, n=4, read-out: concn in ELF, GM",4.27 µM
same,Kp,"[4]; both sexes, human, ELF/plasma, intravenous, calculated as 100 · ELF AUC0–∞/plasma AUC0–∞/0.8, adjusted for protein binding (80% unbound in plasma, 100% free in ELF), read-out: Adjusted ELF/plasma AUC0–∞ ratio",0.54
same,Kp,"[4]; both sexes, human, ELF/plasma, intravenous, calculated as 100 · ELF AUC0–∞/plasma AUC0–∞, mean profiles, read-out: ELF/plasma AUC0–∞ ratio",0.43
same,Kp,"[4]; both sexes, human, ELF/plasma, intravenous, same regimen, 0.5 to 3 h after last dose, read-out: GMRs for ELF/plasma concentrations, range across time points",0.32 to 0.51
same,Kp at 1 h,[4]; [8],0.35
same,Kp at 1.5 h,"[4]; both sexes, human, ELF/plasma, intravenous, same regimen, 1.5 h after last dose, n=4, read-out: ELF/plasma concn GMR (90% CI)",0.51
same,Kp at 3 h,[4]; [8],0.46
same,Kp at 0.5 h,"[4]; both sexes, human, ELF/plasma, iv, healthy subjects, relebactam 250 mg with imipenem-cilastatin 500 mg IV every 6 h, 5 doses, 0.5 h after last dose, n=4, read-out: ELF/plasma concn GMR (90% CI)",0.32
same,AUC(0-inf),[4]; [9],23.6 µM·h
same,Cmax,[4]; [9],7.81 µM
same,Tmax,[4]; [9],1 h
same,AUC(0-t),[4]; [9],12.8 µM·h
same,AUC(0-inf),[4]; [10],34.9 µM·h
same,Cmax,[4]; [10],15.3 µM
same,Tmax,[4]; [10],0.5 h
same,AUC(0-t),[4]; [10],26.7 µM·h
same,AUC(0-inf),[4]; [11],81.2 µM·h
same,Cmax,[4]; [11],47.9 µM
same,Tmax,[4]; [11],0.5 h
same,AUC(0-t),[4]; [11],64.7 µM·h
same,half-life,"[4]; both sexes, human, plasma, intravenous, plasma, same regimen",1.2 h
same,Adjusted ELF/plasma AUC0–∞ ratio,"[4]; calculated as 100 · ELF AUC0–∞/plasma AUC0–∞/0.8, adjusted for protein binding (80% unbound in plasma, 100% free in ELF)",53.7%
same,t1/2 (terminal half-life),"[4]; plasma, same regimen",1.24 h
same,"Relebactam/imipenem concn ratio in ELF, GMR","[4]; same regimen, 0.5 h after last dose",0.47
same,"Relebactam/imipenem concn ratio in ELF, GMR","[4]; same regimen, 1 h after last dose",0.54
same,"Relebactam/imipenem concn ratio in ELF, GMR","[4]; same regimen, 1.5 h after last dose",0.58
same,"Relebactam/imipenem concn ratio in ELF, GMR","[4]; same regimen, 3 h after last dose",0.71
same,tolerability,[5],sufficiently well tolerated
same,single-dose target (AUC0–∞),[6]; derived from the target of 150 μM · h after four times daily dosing,37.5 µM·h
same,required exposure (AUC0–24) for efficacy,[6]; pulmonary infection model,150 µM·h
